Assays:
Assay in all cases: Test D controlled growth environment herbicide test, pre- and postemergence
Format in all cases: in vivo
[1] = system: oat, wild (wild oat, Avena fatua)
How it was run: (§1)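 Rating is visual, 0–100 scale (100 = complete control), made against untreated plants 14–21 d after treatment in controlled growth conditions. Postemergence sprays went onto 1- to 4-leaf plants in peat medium; preemergence sprays onto silt loam after sowing; formulation included a surfactant.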

[2] = system: oilseed rape (Brassica napus)
How it was run: as §1

[3] = system: chickweed (common chickweed, Stellaria media)
How it was run: as §1

[4] = system: wheat, winter (winter wheat, Triticum aestivum)
How it was run: as §1

[5] = system: radish, wild (wild radish, Raphanus raphanistrum)
How it was run: as §1

[6] = system: kochia (Kochia scoparia)
How it was run: as §1

[7] = system: Russian thistle (Salsola kali)
How it was run: as §1

[8] = system: chamomile (scentless chamomile, Matricaria inodora)
How it was run: as §1

[9] = system: speedwell (bird's-eye speedwell, Veronica persica)
How it was run: as §1

[10] = system: deadnettle (henbit deadnettle, Lamium amplexicaule)
How it was run: as §1

[11] = system: barley, spring (spring barley, Hordeum vulgare)
How it was run: as §1

[12] = system: mustard, wild (wild mustard, Sinapis arvensis)
How it was run: as §1

[13] = system: field poppy (Papaver rhoeas)
How it was run: as §1

[14] = system: field violet (Viola arvensis)
How it was run: as §1

[15] = Postemergence, 31 g ai/ha, scale 0 to 100 (0 no effect, 100 complete control)
[16] = Postemergence, 125 g ai/ha, visual rating on scale 0 (no effect) to 100 (complete control), 14 to 21 d
[17] = Postemergence, 250 g ai/ha, scale 0 to 100 (0 no effect, 100 complete control)
[18] = Preemergence, 125 g ai/ha, scale 0 to 100 (0 no effect, 100 complete control)
[19] = Preemergence, 250 g ai/ha, scale 0 to 100, 0 no effect, 100 complete control
[20] = postemergence, 62 g ai/ha, scale 0 to 100, 0 no effect, 100 complete control

For `CC(=O)Oc1c(C)nn(C)c(=O)c1-c1c(C)sc2ccc(Cl)cc12` [Compound 108], the “Oat, Wild plant response rating” value [1, 15] was 85, the “Plant response rating, Oat, Wild” value [1, 16] was 100 and the “Plant response rating, Oat, Wild” value [1, 17] was 100. For the same compound, the “Plant response rating (scale of 0 to 100), Oat, Wild” value ([1]; Preemergence, 31 g ai/ha) was 80, the “Plant response rating (scale of 0 to 100), Oat, Wild” value ([1]; Preemergence, 62 g ai/ha) was 80 and the “Plant response rating, Oat, Wild” value [1, 18] was 80. The “Plant response rating, Oat, Wild” value [1, 19] was 95, the “Plant response rating, Oat, Wild” value [1, 20] was 95 and the “Oilseed Rape plant response rating” value [2, 15] was 45. For the same compound, the “Plant response rating, Oilseed Rape” value [2, 16] was 75, the “Plant response rating, Oilseed Rape” value [2, 17] was 100 and the “Plant response rating (scale of 0 to 100), Oilseed Rape” value ([2]; Preemergence, 31 g ai/ha) was 20. For the same compound, the “Plant response rating (scale of 0 to 100), Oilseed Rape” value ([2]; Preemergence, 62 g ai/ha) was 45, the “Plant response rating, Oilseed Rape” value [2, 18] was 75 and the “Plant response rating, Oilseed Rape” value [2, 19] was 40. For the same compound, the “Plant response rating, Oilseed Rape” value [2, 20] was 70, the “Chickweed plant response rating” value [3, 15] was 90 and the “Plant response rating, Chickweed” value [3, 16] was 100. The “Plant response rating, Chickweed” value [3, 17] was 100, the “Plant response rating (scale of 0 to 100), Chickweed” value ([3]; Preemergence, 31 g ai/ha) was 100 and the “Plant response rating (scale of 0 to 100), Chickweed” value ([3]; Preemergence, 62 g ai/ha) was 100. For the same compound, the “Plant response rating, Chickweed” value [3, 18] was 100, the “Plant response rating, Chickweed” value [3, 19] was 100 and the “Plant response rating, Chickweed” value [3, 20] was 100. The “Wheat, Winter plant response rating” value [4, 15] was 10, the “Plant response rating, Wheat, Winter” value [4, 16] was 20 and the “Plant response rating, Wheat, Winter” value [4, 17] was 20. The “Plant response rating (scale of 0 to 100), Wheat, Winter” value ([4]; Preemergence, 31 g ai/ha) was 0, the “Plant response rating (scale of 0 to 100), Wheat, Winter” value ([4]; Preemergence, 62 g ai/ha) was 0 and the “Plant response rating, Wheat, Winter” value [4, 18] was 10. For the same compound, the “Plant response rating, Wheat, Winter” value [4, 19] was 30, the “Plant response rating, Wheat, Winter” value [4, 20] was 15 and the “Radish, Wild plant response rating” value [5, 15] was 75. The “Plant response rating, Radish, Wild” value [5, 16] was 85, the “Plant response rating, Radish, Wild” value [5, 17] was 90 and the “Plant response rating (scale of 0 to 100), Radish, Wild” value ([5]; Preemergence, 31 g ai/ha) was 45. For the same compound, the “Plant response rating (scale of 0 to 100), Radish, Wild” value ([5]; Preemergence, 62 g ai/ha) was 100, the “Plant response rating, Radish, Wild” value [5, 18] was 100 and the “Plant response rating, Radish, Wild” value [5, 19] was 90. For the same compound, the “Plant response rating, Radish, Wild” value [5, 20] was 75, the “Kochia plant response rating” value [6, 15] was 90 and the “Plant response rating, Kochia” value [6, 16] was 100. The “Plant response rating, Kochia” value [6, 17] was 100, the “Plant response rating (scale of 0 to 100), Kochia” value ([6]; Preemergence, 31 g ai/ha) was 60 and the “Plant response rating (scale of 0 to 100), Kochia” value ([6]; Preemergence, 62 g ai/ha) was 95. The “Plant response rating, Kochia” value [6, 18] was 80, the “Plant response rating, Kochia” value [6, 19] was 100 and the “Plant response rating, Kochia” value [6, 20] was 100. For the same compound, the “Russian Thistle plant response rating” value [7, 15] was 65, the “Plant response rating, Russian Thistle” value [7, 16] was 75 and the “Plant response rating, Russian Thistle” value [7, 17] was 90. The “Plant response rating (scale of 0 to 100), Russian Thistle” value ([7]; Preemergence, 31 g ai/ha) was 0, the “Plant response rating (scale of 0 to 100), Russian Thistle” value ([7]; Preemergence, 62 g ai/ha) was 15 and the “Plant response rating, Russian Thistle” value [7, 18] was 70. For the same compound, the “Plant response rating, Russian Thistle” value [7, 19] was 100, the “Plant response rating, Russian Thistle” value [7, 20] was 70 and the “Chamomile plant response rating” value [8, 15] was 75. For the same compound, the “Plant response rating, Chamomile” value [8, 16] was 95, the “Plant response rating, Chamomile” value [8, 17] was 100 and the “Plant response rating, Chamomile” value [8, 20] was 85. The “Speedwell plant response rating” value [9, 15] was 60, the “Plant response rating, Speedwell” value [9, 16] was 70 and the “Plant response rating, Speedwell” value [9, 17] was 80. For the same compound, the “Plant response rating, Speedwell” value [9, 20] was 65, the “Deadnettle plant response rating” value [10, 15] was 35 and the “Plant response rating, Deadnettle” value [10, 16] was 75. For the same compound, the “Plant response rating, Deadnettle” value [10, 17] was 90, the “Plant response rating (scale of 0 to 100), Deadnettle” value ([10]; Preemergence, 31 g ai/ha) was 0 and the “Plant response rating (scale of 0 to 100), Deadnettle” value ([10]; Preemergence, 62 g ai/ha) was 25. The “Plant response rating, Deadnettle” value [10, 18] was 95, the “Plant response rating, Deadnettle” value [10, 19] was 100 and the “Plant response rating, Deadnettle” value [10, 20] was 50. For the same compound, the “Barley, Spring plant response rating” value [11, 15] was 0, the “Plant response rating, Barley, Spring” value [11, 16] was 15 and the “Plant response rating, Barley, Spring” value [11, 17] was 20. The “Plant response rating (scale of 0 to 100), Barley, Spring” value ([11]; Preemergence, 31 g ai/ha) was 0, the “Plant response rating, Barley, Spring” value ([11]; Preemergence, 62 g ai/ha, scale 0 to 100 (0 no effect, 100 complete control)) was 0 and the “Plant response rating, Barley, Spring” value [11, 18] was 0. For the same compound, the “Plant response rating, Barley, Spring” value [11, 19] was 0, the “Plant response rating, Barley, Spring” value [11, 20] was 10 and the “Mustard, Wild plant response rating” value [12, 15] was 70. For the same compound, the “Plant response rating, Mustard, Wild” value [12, 16] was 95, the “Plant response rating, Mustard, Wild” value [12, 17] was 100 and the “Plant response rating (scale of 0 to 100), Mustard, Wild” value ([12]; Preemergence, 31 g ai/ha) was 5. The “Plant response rating (scale of 0 to 100), Mustard, Wild” value ([12]; Preemergence, 62 g ai/ha) was 60, the “Plant response rating, Mustard, Wild” value [12, 18] was 95 and the “Plant response rating, Mustard, Wild” value [12, 19] was 85. For the same compound, the “Plant response rating, Mustard, Wild” value [12, 20] was 75, the “Field Poppy plant response rating” value [13, 15] was 20 and the “Plant response rating, Field Poppy” value [13, 16] was 65. The “Plant response rating, Field Poppy” value [13, 17] was 75, the “Plant response rating (scale of 0 to 100), Field Poppy” value ([13]; Preemergence, 31 g ai/ha) was 10 and the “Plant response rating (scale of 0 to 100), Field Poppy” value ([13]; Preemergence, 62 g ai/ha) was 10. The “Plant response rating, Field Poppy” value [13, 18] was 100, the “Plant response rating, Field Poppy” value [13, 19] was 100 and the “Plant response rating, Field Poppy” value [13, 20] was 55. For the same compound, the “Field Violet plant response rating” value [14, 15] was 90, the “Plant response rating, Field Violet” value [14, 16] was 100 and the “Plant response rating, Field Violet” value [14, 17] was 100. The “Plant response rating (scale of 0 to 100), Field Violet” value ([14]; Preemergence, 31 g ai/ha) was 90, the “Plant response rating (scale of 0 to 100), Field Violet” value ([14]; Preemergence, 62 g ai/ha) was 100 and the “Plant response rating, Field Violet” value [14, 18] was 100. The “Plant response rating, Field Violet” value [14, 19] was 100 and the “Plant response rating, Field Violet” value [14, 20] was 95.
